Read-outs that look alike come from different tables or passages of the source.
Columns and labels:
[1] = test system: DC-3F, K-562 and Lewis Lung Carcinoma cells; assay: In vitro electroporation, MTT viability assay; assay type: cell-based, Chinese hamster, human, murine
Procedure: Three cell lines are used for in vitro experiments, DC-3F, a transformed Chinese hamster lung fibroblast cell line; K-562, a human leukemia cell line; and Lewis Lung Carcinoma, a murine lung carcinoma cell line. DC-3F cells were tested for mycoplasma in January 2011, K-562 cells were tested for mycoplasma in 2008 prior to freezing and thawing just before experiments were performed, and Lewis Lung cells were tested by rapid MAP27 panel (Taconic, Hudson N.Y.) in July 2011 without signs of infection. Cells are maintained in RPMI 1640 culture medium (GIBCO™, Life Technologies, Carlsbad, Calif.) with 10% fetal calf serum (GIBCO™, Life Technologies, Carlsbad, Calif.), penicillin and streptomycin at 37° C. and 5% C02. After harvesting, cells are washed and diluted in HEPES buffer containing 10 mM HEPES (Lonza, Basel, Switzerland), 250 mM sucrose and 1 mM MgCl2 in sterile water. 270 μl cell suspension (6.1×10^6 cells/ml) and 30 μl CaCl2, or in the case of controls, HEPES buffer, are electroporated in 4 mm wide cuvettes with aluminium electrodes (Molecular BioProducts, Inc., San Diego, Calif.). Cooled cells (8° C.) are exposed to 8 pulses of 1.2 kV/cm with pulse duration of 99 μs (DC-3F and K562 cells) or 8 pulses of 1.4 kV/cm with pulse duration of 99 μs (Lewis Lung Carcinoma) using a BTX® T820 square wave electroporator (BTX®, Harvard Apparatus, Holliston, Mass.). The electroporation parameters are chosen after optimization to obtain high permabilisation and cell survival. After 20 min at 37° C. and 5% CO2 cells are diluted in RPMI 1640 culture medium with 10% fetal calf serum and penicillin-streptomycin and seeded in 96-well plates at a concentration of 3.1×10^4 cells/100 μl.
Difference between electroporated and non-electroporated cells in identical buffer is assessed using two-way analysis of variance (ANOVA) with post least-squares-means test with Bonferroni correction for multiple comparisons.

[2] = test system: LPB (murine sarcoma) tumors; assay: Fraction of necrosis after calcium electroporation, LPB tumors; assay type: in vivo, NMRI-Foxn1^nu mice
Procedure: LPB, a murine sarcoma cell line, B16, a murine malignant melanoma cell line, MDA-MB231, human a breast cancer cell line, HT29, a human colon cancer cell line, and SW780, a human bladder cancer cell line were used for the in vivo experiment. The cells were tested by rapid MAP27 panel (Taconic, Hudson N.Y.) before use without signs of infection. 2×10^5 cells (B16), 8×10^5 cells (LPB), 2.5×10^6 cells (MDA-MB231), and 5×10^6 cells (HT29 and SW780) in 100 μl PBS were injected subcutaneously in the flank of NMRI-Foxn1^nu mice (Harlan, Indianapolis, Ind.) that were 9-11 weeks old. Mice were randomised at a tumor volume above 85 mm^3 and tumors were treated with injection of isotonic calcium-chloride solution (168 mM CaCI2) and electroporation (8 pulses of 1.0 kv/cm for 100 μs and a frequency of 1 Hz) using a 6 mm plate electrode and a square wave electroporator (CLINIPORATOR®, IGEA, Modena, Italy). Tumor volume was calculated as ab^2n/6, where a is the largest diameter and b is the largest diameter perpendicular to a. The injected volume was half of the tumor volume. […] The fraction of necrosis within the tumor was estimated from HE-sections by stereological point counting using a light microscope, evaluated by a pathologist, blinded with respect to treatment status.
The difference in fraction of necrosis at different time after treatment was assessed using student's t-test.

[Ca+2].[Cl-].[Cl-] [calcium chloride]
EC50 ([1]; all electroporated cell lines, 8 pulses 1.2-1.4 kV/cm, 99 μs, MTT 1 and 2 days after treatment, read-out: EC50 (decrease in viability)): 570 µM
lowest concentration inducing high cell death ([1]; electroporated): 1 mM
calcium concentration from which viability decreases significantly (p<0.01) ([1]; electroporated, all cell lines): ≥ 0.5 mM
cell death after calcium electroporation ([1]; electroporated, all three cell lines): dose dependent cell death
effect on cell viability ([1]; non-electroporated cells, high calcium concentrations): no effect on cell viability
EC50 ([1]; range over the electroporated cell lines, read-out: EC50 range (decrease in viability)): 350 to 790 µM
EC50 (decrease in viability) ([1]; without electroporation): not reached
fraction of necrosis in tumors, course ([2]; 168 mM CaCl2, half tumor volume, electroporation, first days after treatment): progressive necrosis
tumor re-growth ([2]; 6 days after the treatment): re-growth

Source: US9943599B2, “Therapeutic applications of calcium electroporation to effectively induce tumor necrosis” (Herlev Hospital, priority 2011, dated 2018)
